Assay [1] deals with Candida albicans IFO1270. Put plainly: Growth inhibition of Candida albicans in Sabouraud's glucose broth (Test Example 1). The class given is cell-based. The settings on record: two days incubation at 37°C under shaking; for Growth inhibition ratio 0.1 µg/ml (%): 0.1 µg/ml test compound; for Growth inhibition ratio 10 µg/ml (%): 10 µg/ml test compound. How it is done:
Sabouraud's glucose broth (9.8 ml) was inoculated with 0.1 ml of Candida albicans IFO1270 (1.0×10^6 cells/ml). Then 0.1 ml of a solution of each test compound dissolved with dimethylsulfoxide in an appropriate concentration was added to give concentrations of 10 µg/ml and 0.1 µg/ml. Two days after incubating at 37°C under shaking, the growth inhibition ratio was measured. […]

In assay [2] the test system is Candida albicans IFO1270. Put plainly: Survival of mice inoculated with Candida albicans after oral treatment (Test Example 2). The class given is in vivo. The settings on record: ddY mice; 0.5% aqueous CMC solution containing 0.02% of test compound, orally, 5 ml/kg once a day for 4 days; survival ratio on final day (10 days following inoculation). The protocol: ddY mice aged 6 weeks were divided into a control group having 10 mice and test groups each having 5 mice. After inoculating with 4 ml/kg of Candida albicans IFO1270 (2.5×10^7 cells/ml), which had been incubated on Sabouraud's glucose agar medium at 37°C for 2 hours, a 0.5% aqueous CMC solution (containing 10% of polyethylene glycol 400 and 0.1% of Tween 80) containing 0.02% of each test compound was orally administered to the mice in a dose of 5 ml/kg once a day for 4 days. The viable […] were counted for 10 days following the inoculation and the survival ratio on the final day was calculated. […]

With `C[C@@H](Cc1ccc(C#N)cc1)[C@](O)(Cn1cncn1)c1ccc(F)cc1F` [Compound 7, (2R,3S)-4-(4-cyanophenyl)-2-(2,4-difluorophenyl)-3-methyl-1-(1H-1,2,4-triazol-1-yl)butan-2-ol], in the assay on Candida albicans IFO1270 [1], the “Growth inhibition ratio 0.1 µg/ml (%)” value is recorded as 55% and the “Growth inhibition ratio 10 µg/ml (%)” value came out at 70%. Also, the “Survival ratio (%)” value in the assay with Candida albicans IFO1270 [2] is listed as 100%.

In the case of `CC(=O)N1CCN(c2ccc(OC[C@H]3CO[C@](Cn4ccnc4)(c4ccc(Cl)cc4Cl)O3)cc2)CC1` (relative stereo) [A, Cis-1-acetyl-4-[4-[[2-(2,4-dichlorophenyl)-2-(imidazol-1-ylmethyl)-1-3-oxolan-4-yl]methoxy]phenyl]piperazine, reference compound], in the assay with Candida albicans IFO1270 [1], the “Growth inhibition ratio 0.1 µg/ml (%)” value is 47% and the “Growth inhibition ratio 10 µg/ml (%)” value is 59%. In the assay with Candida albicans IFO1270 [2], the “Survival ratio (%)” value is recorded as 40%.

Turning to `C[C@@H](Cc1ccc(F)cc1)[C@](O)(Cn1cncn1)c1ccc(F)cc1F` [Compound 1, (2R,3S)-2-(2,4-difluorophenyl)-4-(4-fluorophenyl)-3-methyl-1-(1H-1,2,4-triazol-1-yl)butan-2-ol], in the assay with Candida albicans IFO1270 [1], the “Growth inhibition ratio 0.1 µg/ml (%)” value is recorded as 48% and the “Growth inhibition ratio 10 µg/ml (%)” value amounted to 64%. Also, the “Survival ratio (%)” value with Candida albicans IFO1270 [2] is reported as 80%.

Take `C[C@@H](Cc1ccc(F)cc1F)[C@](O)(Cn1cncn1)c1ccc(F)cc1F` [Compound 2, (2R,3S)-2,4-bis(2,4-difluorophenyl)-3-methyl-1-(1H-1,2,4-triazol-1-yl)butan-2-ol]: in the assay on Candida albicans IFO1270 [1], the “Growth inhibition ratio 0.1 µg/ml (%)” value is 51% and the “Growth inhibition ratio 10 µg/ml (%)” value was 66%. Also, the “Survival ratio (%)” value in the assay on Candida albicans IFO1270 [2] is 60%.

Values taken from EP0753513A2, “Optically active triazole derivative, process for producing the same, antifungal agent, and use thereof” (NIHON NOHYAKU CO., LTD., priority 1995, dated 1997).
